Source: article PMC12647017, “Discovery and optimization of a synthetic small protein domain targeting antibodies” (Frontiers in Bioengineering and Biotechnology, 2025)

Key:
human IgG = assay: Microscale Thermophoresis (MST) with IgG-FITC; assay type: binding; conditions: E6, IgG-FITC 50 nM, E6 23.5 µM to 0.7 nM, 50 mM MOPS 0.05% (v/v) Tween-20 pH 7, 25 °C, n = 4
Method: For MST assays of E6, IgG was conjugated with fluoresceine isothiocyanate (FITC) using standard protocols. The conjugated IgG-FITC was used at a fixed concentration of 50nM and 16 serial dilutions of E6 protein (from 23.5 µM to 0.7 nM) were made in 50 mM MOPS 0.05% (v/v) Tween-20 pH 7.
For MST assays of E6_M2_T2, the target was hIgG-FITC (F9636, Sigma) at a constant concentration of 25 nM. For the E6_M2_T2 ligand, 16 samples were prepared in variable concentrations starting from 695 nM and using a serial dilution of 1:2 up to a minimum concentration of […] using PBS1x-0.05% (v/v) Tween-20 pH7.4.
Samples were transferred to a standard capillary (Monolith NT.115 Capillary, Nanotemper) with the following settings: medium MST-power, excitation power at 20%, with excitation in Nano-Blue, with thermostat at 25 °C. The signal of the samples was read in triplicates using a Monolith NT.115 (Nanotemper) and the signal was processed in the manufacturer software with FitModel: Kd and Hill. The binding parameters (KD and EC50) and were estimated automatically in the MST software.

[1] = Solubility / precipitation observed during production, dialysis and purification; assay type: physicochemical; conditions: lead ligand sequences from WWp5_4 naïve library
Method: Therefore, after expression the soluble fractions were further centrifuged at 42,000 g for 20 min at 4 °C. As the samples were diluted (∼5 mg/mL in 25 mL lysis buffer), the soluble fractions were lyophilized and resuspended in 4 mL of water. The samples were dialyzed (Membranes Spectra Pre-Treated 1 kDa, Carl Roth) to Binding buffer without imidazole (20 mM Sodium Phosphate, 500 mM Sodium Chloride pH 7.4) for 24 h at 16 °C. The samples were quantified by […] (typically ∼6 mg/mL), this solution was diluted 1:2 in Binding buffer (20 mM Sodium Phosphate, 500 mM Sodium Chloride, 20 mM imidazole pH 7.4) and purified in a gravitational flow with 6 mL of resin (IMAC Sepharose 6 Fast Flow (Ni^2+), Cytiva) packed in a PD-10 column. The column was prepared using the indications of the manufacturer. The binding of the protein to the column was maximized by an incubation for 1 h at room temperature in agitation at 40rpm. The resin was washed 4 x column volumes (CV) with binding buffer. The elution as achieved by incubation for 15min with elution buffers. We used a gradient with 3 x CV elution buffer 1 (binding buffer with 100 mM imidazole) and 3 x CV elution buffer 2 (binding buffer with 200 mM imidazole).
The most enriched elutions in WW domains (60%–70% purity) were combined and dialysed against PBS1x (10 mM Na2HPO4, 1.8 mM KH2PO4, 2.7 mM KCl, 137 mM NaCl pH 7.4) with routine changes of buffer up to 48 h at 16 °C. Following the samples were concentrated with a Amicon-Ultra15 3 kDa MWCO (Millipore) with centrifugation conditions 4,900 g, 30 min, 4 °C. The final samples were quantified by BCA assay.
Size Exclusion Chromatography (SEC). The samples were further purified by SEC to achieve 90% purity in a AKTA system (Cytiva). The column Superdex 75 Increase 10/300 GL (29148721, Cytiva) was washed with water and equilibrated 2CV in PBS1x, as described by the manufacturer. As calibrants we prepare a mixture: 2 mg/mL of Bovine Serum Albumin (66 kDa, BP9702-100, FisherScientific), Ovalbumin (42 kDa, A5503-1G, Sigma), Chicken Lysozyme ([…], 62,971–10G-F, Fluka) and hPin1_WW chemically synthesized (5 kDa, produced in ([Dias et al., 2015])) in PBS 1x, this sample was filtered with 0.2 µm PES (514–0073, VWR) and analysed. The operation conditions: flow 0.5 mL/min, 0.05 CV in PBS1x and injection of 250 µL and run for 2 CV with PBS 1x at 16 °C. The same method was used for the WW domain samples. After purifications samples were quantified for total protein by BCA assay, as described previously and used for characterization.

SMGLPPGWDEYKT RRFKL GKTYYYNH HILS KTSTWTDPRMSS [Clone E6]
EC50 (human IgG): 146 nM
Kd (human IgG; read-out: dissociation constant, KD): 133 ± 48 nM
solubility observed in production and purification [1]: limited solubility
